PubChem BioAssay (NCI)
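Dose response: 5 concentrations. Exposure: 48 h. Format: 96-well plates. Endpoint: linear interpolation; highest concentration if not reached. GI50 is the concentration that inhibits growth by half. TGI: total growth inhibition.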

Columns and labels:
Assay in all cases: inhibition of tumour cell growth, NCI panel, 48 h
DU-145 prostate = test system: DU-145 prostate
TK-10 renal = test system: TK-10 renal
SK-OV-3 ovarian = test system: SK-OV-3 ovarian
IGROV1 ovarian = test system: IGROV1 ovarian
UACC-62 melanoma = test system: UACC-62 melanoma
UO-31 renal = test system: UO-31 renal
OVCAR-4 ovarian = test system: OVCAR-4 ovarian
CCRF-CEM leukemia = test system: CCRF-CEM leukemia
HOP-92 NSCLC = test system: HOP-92 NSCLC
SNB-19 CNS = test system: SNB-19 CNS
A498 renal = test system: A498 renal
NCI/ADR-RES ovarian = test system: NCI/ADR-RES ovarian
HCT-15 colon = test system: HCT-15 colon
HCC-2998 colon = test system: HCC-2998 colon
COLO 205 colon = test system: COLO 205 colon
OVCAR-3 ovarian = test system: OVCAR-3 ovarian
SK-MEL-5 melanoma = test system: SK-MEL-5 melanoma
786-0 renal = test system: 786-0 renal
NCI-H226 lung = test system: NCI-H226 lung
MDA-MB-231 breast = test system: MDA-MB-231 breast
HL-60(TB) leukemia = test system: HL-60(TB) leukemia
HCT-116 colon = test system: HCT-116 colon
U251 CNS = test system: U251 CNS
BT-549 breast = test system: BT-549 breast
HT29 colon = test system: HT29 colon
SN12C renal = test system: SN12C renal
SF-539 CNS = test system: SF-539 CNS
KM12 colon = test system: KM12 colon
HS 578T breast = test system: HS 578T breast
NCI-H522 lung = test system: NCI-H522 lung
LOX IMVI melanoma = test system: LOX IMVI melanoma
SF-268 CNS = test system: SF-268 CNS
SNB-75 CNS = test system: SNB-75 CNS
MALME-3M melanoma = test system: MALME-3M melanoma
EKVX NSCLC = test system: EKVX NSCLC
OVCAR-5 ovarian = test system: OVCAR-5 ovarian
CAKI-1 renal = test system: CAKI-1 renal
A549 NSCLC = test system: A549 NSCLC
MCF7 breast = test system: MCF7 breast
RPMI-8226 leukemia = test system: RPMI-8226 leukemia
MDA-MB-435 = test system: MDA-MB-435
SF-295 CNS = test system: SF-295 CNS
HOP-62 NSCLC = test system: HOP-62 NSCLC
SK-MEL-2 melanoma = test system: SK-MEL-2 melanoma
NCI-H460 lung = test system: NCI-H460 lung
RXF 393 renal = test system: RXF 393 renal
SW-620 colon = test system: SW-620 colon
SR leukemia = test system: SR leukemia
UACC-257 melanoma = test system: UACC-257 melanoma
OVCAR-8 ovarian = test system: OVCAR-8 ovarian
MOLT-4 leukemia = test system: MOLT-4 leukemia
K-562 leukemia = test system: K-562 leukemia
PC-3 prostate = test system: PC-3 prostate
NCI-H23 lung = test system: NCI-H23 lung
M14 melanoma = test system: M14 melanoma
ACHN renal = test system: ACHN renal
SK-MEL-28 melanoma = test system: SK-MEL-28 melanoma
T-47D breast = test system: T-47D breast

COc1ccc(/C=C2\COc3ccc(O)c(O)c3C2=O)cc1
GI50 (DU-145 prostate): 1080 nM
TGI (DU-145 prostate): > 31200 nM
GI50 (TK-10 renal): 1570 nM
TGI (TK-10 renal): > 27100 nM
GI50 (SK-OV-3 ovarian): 923 nM
TGI (SK-OV-3 ovarian): > 100000 nM
GI50 (IGROV1 ovarian): 522 nM
TGI (IGROV1 ovarian): 2490 nM
GI50 (UACC-62 melanoma): 513 nM
TGI (UACC-62 melanoma): 2410 nM
GI50 (UO-31 renal): 606 nM
TGI (UO-31 renal): 1970 nM
GI50 (OVCAR-4 ovarian): 2380 nM
TGI (OVCAR-4 ovarian): > 33200 nM
GI50 (CCRF-CEM leukemia): 333 nM
TGI (CCRF-CEM leukemia): 9820 nM
GI50 (HOP-92 NSCLC): 1140 nM
TGI (HOP-92 NSCLC): 6100 nM
GI50 (SNB-19 CNS): 2980 nM
TGI (SNB-19 CNS): > 100000 nM
GI50 (A498 renal): 1000 nM
TGI (A498 renal): 5550 nM
GI50 (NCI/ADR-RES ovarian): 329 nM
TGI (NCI/ADR-RES ovarian): 35700 nM
GI50 (HCT-15 colon): 492 nM
TGI (HCT-15 colon): 2740 nM
GI50 (HCC-2998 colon): 2450 nM
TGI (HCC-2998 colon): 6280 nM
GI50 (COLO 205 colon): 3150 nM
TGI (COLO 205 colon): 10800 nM
GI50 (OVCAR-3 ovarian): 511 nM
TGI (OVCAR-3 ovarian): 4570 nM
GI50 (SK-MEL-5 melanoma): 329 nM
TGI (SK-MEL-5 melanoma): 1250 nM
GI50 (786-0 renal): 708 nM
TGI (786-0 renal): 5270 nM
GI50 (NCI-H226 lung): 2370 nM
TGI (NCI-H226 lung): 6900 nM
GI50 (MDA-MB-231 breast): 420 nM
TGI (MDA-MB-231 breast): 3110 nM
GI50 (HL-60(TB) leukemia): 334 nM
TGI (HL-60(TB) leukemia): 2090 nM
GI50 (HCT-116 colon): 2000 nM
TGI (HCT-116 colon): 6850 nM
GI50 (U251 CNS): 1310 nM
TGI (U251 CNS): 6070 nM
GI50 (BT-549 breast): 511 nM
TGI (BT-549 breast): 4850 nM
GI50 (HT29 colon): 3270 nM
TGI (HT29 colon): 19600 nM
GI50 (SN12C renal): 391 nM
TGI (SN12C renal): 2530 nM
GI50 (SF-539 CNS): 325 nM
TGI (SF-539 CNS): 1170 nM
GI50 (KM12 colon): 924 nM
TGI (KM12 colon): 3950 nM
GI50 (HS 578T breast): 422 nM
TGI (HS 578T breast): > 100000 nM
GI50 (NCI-H522 lung): 159 nM
TGI (NCI-H522 lung): 402 nM
GI50 (LOX IMVI melanoma): 369 nM
TGI (LOX IMVI melanoma): 1520 nM
GI50 (SF-268 CNS): 1340 nM
TGI (SF-268 CNS): 6580 nM
GI50 (SNB-75 CNS): 572 nM
TGI (SNB-75 CNS): > 100000 nM
GI50 (MALME-3M melanoma): 751 nM
TGI (MALME-3M melanoma): 2690 nM
GI50 (EKVX NSCLC): 2470 nM
TGI (EKVX NSCLC): > 61300 nM
GI50 (OVCAR-5 ovarian): 2190 nM
TGI (OVCAR-5 ovarian): 5850 nM
GI50 (CAKI-1 renal): 951 nM
TGI (CAKI-1 renal): 4230 nM
GI50 (A549 NSCLC): 2550 nM
TGI (A549 NSCLC): 16200 nM
GI50 (MCF7 breast): 464 nM
TGI (MCF7 breast): > 100000 nM
GI50 (RPMI-8226 leukemia): 317 nM
TGI (RPMI-8226 leukemia): 1200 nM
GI50 (MDA-MB-435): 257 nM
TGI (MDA-MB-435): 984 nM
GI50 (SF-295 CNS): 4620 nM
TGI (SF-295 CNS): > 100000 nM
GI50 (HOP-62 NSCLC): 2240 nM
TGI (HOP-62 NSCLC): 16200 nM
GI50 (SK-MEL-2 melanoma): 517 nM
TGI (SK-MEL-2 melanoma): 26900 nM
GI50 (NCI-H460 lung): 2460 nM
TGI (NCI-H460 lung): 7940 nM
GI50 (RXF 393 renal): 440 nM
TGI (RXF 393 renal): 1310 nM
GI50 (SW-620 colon): 1310 nM
TGI (SW-620 colon): 4820 nM
GI50 (SR leukemia): 403 nM
TGI (SR leukemia): > 100000 nM
GI50 (UACC-257 melanoma): 1470 nM
TGI (UACC-257 melanoma): 8970 nM
GI50 (OVCAR-8 ovarian): 458 nM
TGI (OVCAR-8 ovarian): 18700 nM
GI50 (MOLT-4 leukemia): 376 nM
TGI (MOLT-4 leukemia): 20400 nM
GI50 (K-562 leukemia): 330 nM
TGI (K-562 leukemia): > 100000 nM
GI50 (PC-3 prostate): 741 nM
TGI (PC-3 prostate): 23600 nM
GI50 (NCI-H23 lung): 2890 nM
TGI (NCI-H23 lung): 14900 nM
GI50 (M14 melanoma): 308 nM
TGI (M14 melanoma): > 48200 nM
GI50 (ACHN renal): 637 nM
TGI (ACHN renal): 2000 nM
GI50 (SK-MEL-28 melanoma): 1150 nM
TGI (SK-MEL-28 melanoma): 7470 nM
GI50 (T-47D breast): 1170 nM
TGI (T-47D breast): 4710 nM
